Reference: US20040162286A1, “Substituted 6-(2-tolyl)-triazolopyrimidines as fungicides” (priority 2001, published 2004)

What follows are molecules tested on Alternaria solani (assay: Fungicidal control of early blight on tomatoes, protective spray). Conditions: 63 ppm active ingredient; tomato plants; assessed after 6 days; untreated plants infected to 90%.
Format: in vivo
Experimental: The active compounds, separately or together, were formulated as a 10% emulsion in a mixture of 70% by weight of cyclohexanone, 20% by weight of Nekanil® LN (Lutensol® AP6, wetting agent having emulsifying and dispersant action based on ethoxylated alkylphenols) and 10% by weight of Wettol® EM (nonionic emulsifier based on ethoxylated castor oil) and diluted with water to the desired concentration. Young seedlings of tomato plants of the variety “Groβe Fleischtomate St. Pierre” were grown in pots to the 2 to 4 leaf stage. These plants were sprayed to run-off with an aqueous suspension, containing the concentration of active ingredient mentioned in the table below, prepared from a stock solution containing 10% of the active ingredient, 85% cyclohexanone and 5% emulsifier. The next day, the treated plants were inoculated with an aqueous suspension of Alternaria solani containing 0.2×10^6 spores per ml. Then the trial plants were immediately transferred to a humid chamber. After 6 days at 20 to 23° C. and a relative humidity close to 100%, the extent of fungal attack on the leaves was visually assessed as % diseased leaf area. The test was conducted as described in Comparison trial 1.
For `Cc1ccccc1-c1c(Cl)nc2ncnn2c1NC(C)C(F)(F)F` (centres unmarked) [Compound A], the “infection (% diseased leaf area)” value was 15%.

Same assay, conditions: 250 ppm active ingredient; tomato plants; untreated plants infected to 90%
For `Cc1cc(Cl)ccc1-c1c(Cl)nc2ncnn2c1N1CCC(C)CC1` [I-66], the “infection (% diseased leaf area)” value was “no infection”. In the case of `Cc1cc(F)ccc1-c1c(Cl)nc2ncnn2c1NC(C)C(C)(C)C` (racemic) [I-41], the “infection (% diseased leaf area)” value is reported as “no infection”. In the case of `CCC(C)Nc1c(-c2ccc(F)cc2C)c(Cl)nc2ncnn12` (racemic) [I-35], the “infection (% diseased leaf area)” value is reported as “no infection”. `Cc1cc(F)ccc1-c1c(Cl)nc2ncnn2c1NC(C)C(F)(F)F` (racemic) [I-44] was tested, and the “infection (% diseased leaf area)” value was “no infection”. For `C=C(C)CN(CC)c1c(-c2ccc(F)cc2C)c(Cl)nc2ncnn12` [I-28], the “infection (% diseased leaf area)” value was “no infection”. For `Cc1cc(F)ccc1-c1c(Cl)nc2ncnn2c1NC(C)C(C)C` (racemic) [I-38], the “infection (% diseased leaf area)” value was “no infection”. In the case of `Cc1cccc(F)c1-c1c(Cl)nc2ncnn2c1NC1CCCC1` [I-10], the “infection (% diseased leaf area)” value is reported as “no infection”. In the case of `Cc1cc(F)ccc1-c1c(Cl)nc2ncnn2c1N1CCC(C)CC1` [I-30], the “infection (% diseased leaf area)” value is reported as “no infection”. In the case of `Cc1cc(Cl)ccc1-c1c(Cl)nc2ncnn2c1NCC(F)(F)F` [I-83], the “infection (% diseased leaf area)” value is reported as “no infection”. With `C=C(C)CN(CC)c1c(-c2c(C)cccc2F)c(Cl)nc2ncnn12` [I-7] the “infection (% diseased leaf area)” value was “no infection”. In the case of `Cc1cccc(F)c1-c1c(Cl)nc2ncnn2c1N1CCC(C)CC1` [I-9], the “infection (% diseased leaf area)” value is reported as “no infection”.

Each molecule was assayed on Blumeria graminis f. sp. tritici (assay: Fungicidal control of powdery mildew on wheat, protective spray). Conditions: 63 ppm active ingredient, assessed after 7 days, untreated plants infected to 85%.
Format: in vivo
Description: The active compounds, separately or together, were formulated as a 10% emulsion in a mixture of 70% by weight of cyclohexanone, 20% by weight of Nekanil® LN (Lutensol® AP6, wetting agent having emulsifying and dispersant action based on ethoxylated alkylphenols) and 10% by weight of Wettol® EM (nonionic emulsifier based on ethoxylated castor oil) and diluted with water to the desired concentration. The first fully developed leaves of pot grown wheat of the variety “Kanzler” were sprayed to run-off with an aqueous suspension, containing the concentration of active ingredient or their mixture mentioned in the table below, prepared from a stock solution containing 10% of the active ingredient, 85% cyclohexanone and 5% emulsifier. The next day the treated plants were inoculated with spores of Blumeria graminis f. sp. tritici by shaking heavily infestated stock plants over the treated pots. After cultivation in the greenhouse for 7 days at 22-26° C. and a relative humidity between 60 to 90% the extent of fungal attack on the leaves was visually assessed as % diseased leaf area. The test was conducted as described in Comparison trial 2.
In the case of `Cc1ccccc1-c1c(Cl)nc2ncnn2c1NC(C)C(F)(F)F` (centres unmarked) [Compound A], the “infection (% diseased leaf area)” value is reported as 30%.

What follows are molecules tested on Plasmopara viticola (assay: Fungicidal control of grape downy mildew (Comparison Trial 3, inoculation the next day)). Conditions: 250 ppm active ingredient; grape cuttings; inoculated next day; untreated plants infected to 80%.
Format: in vivo
Experimental: The active compounds, separately or together, were formulated as a 10% emulsion in a mixture of 70% by weight of cyclohexanone, 20% by weight of Nekanil® LN (Lutensol® AP6, wetting agent having emulsifying and dispersant action based on ethoxylated alkylphenols) and 10% by weight of Wettol® EM (nonionic emulsifier based on ethoxylated castor oil) and diluted with water to the desired concentration. Grape cuttings of the cultivar “Müller-Thurgau” were grown in pots to the 4 to 5 leaf stage. These plants were sprayed to run-off with an aqueous suspension, containing the concentration of active ingredient or their mixture mentioned in the table below, prepared from a stock solution containing 10% of the active ingredient, 85% cyclohexanone and 5% emulsifier. The plants were allowed to air-dry. The next day they were inoculated with an aqueous spore suspension of Plasmopara viticola by spraying it at the lower leaf-side. Then the trial plants were immediately transferred for 24 h to a humid chamber with 22-24° C. and a relative humidity close to 100%. For a period of 5 days, cultivation followed in a greenhouse at 20-25° C. and a relative humidity about 50-80%. To stimulate the outbreak of the disease symptoms, the plants were transferred to a humid chamber again for 24 hours. Then the extent of fungal attack on the lower leaf surface was visually assessed as % diseased leaf area.
In the case of `Cc1ccccc1-c1c(Cl)nc2ncnn2c1NC(C)C(F)(F)F` (centres unmarked) [Compound A], the “infection (% diseased leaf area, lower leaf surface)” value is reported as 80%.
